Drawing on ChEMBL document CHEMBL5385850, “Identification of novel aza-analogs of TN-16 as disrupters of microtubule dynamics through a multicomponent reaction” (Eur J Med Chem, 2023), this text covers inhibition, Activity and EC50 for ten compounds.

Assay [1] concerns the target T1, Tubulin (Homo sapiens) (UniProt P68371+Q9H4B7+P0DPH7+P68366+Q13509+Q71U36+P04350+Q3ZCM7+P07437+P68363+Q9BQE3+Q6PEY2+Q13885+Q9BVA1+Q9BUF5). As to the kind of experiment: Inhibition of tubulin polymerization in human SH-SY5Y cells assessed as decrease in depolymerized tubulin to polymerized tubulin ratio at 100 nM measured after 16 hrs by Western blot analysis. It counts as cell-based. For orientation: Immunoblotting shows a protein as a band on a membrane.

Assay [2] relates to HeLa. In words: Cytotoxicity against human HeLa cells incubated for 48 hrs by MTT assay. It counts as functional, cell-based. A general note: Tetrazolium assays rely on reduction of a dye to a coloured formazan, in cell work by metabolically active cells.
Assay [3] concerns SH-SY5Y. As to the kind of experiment: Cytotoxicity against human SH-SY5Y cells incubated for 48 hrs by MTT assay. The assay is classed as functional, cell-based.
The test system of assay [4] is MDA-MB-231. In words: Cytotoxicity against human MDA-MB-231 cells incubated for 48 hrs by MTT assay. It counts as functional, cell-based.
Assay [5] deals with MCF7. As to the kind of experiment: Cytotoxicity against human MCF7 cells incubated for 48 hrs by MTT assay. It counts as functional, cell-based.
Assay [6] deals with SH-SY5Y. As to the kind of experiment: Cytotoxicity against human SH-SY5Y cells at 1 uM incubated for 72 hrs by MTT assay relative to control. It counts as functional.
Assay [7] has as its system SH-SY5Y. In words: Induction of cell cycle arrest in human SH-SY5Y cells assessed as accumulation of cells at G2/M phase at 1 uM measured after 16 hrs by PI staining based flow cytometry analysis. It counts as functional. (In general: In flow cytometry, cells or beads pass a laser one at a time.)
For assay [8], the target named is T1, Tubulin (Homo sapiens). As to the kind of experiment: Inhibition of tubulin polymerization in human SH-SY5Y cells assessed as decrease in depolymerized tubulin to polymerized tubulin ratio at 1 uM measured after 16 hrs by Western blot analysis. It counts as cell-based.
The target of assay [9] is T1, Tubulin (Homo sapiens). In words: Inhibition of tubulin polymerization (unknown origin) measured every 60 secs for 1 hr by fluorescence based analysis. It counts as protein-complex assay. The conditions noted are these: dose 1-10 µM.
For assay [10], the target named is T1, Tubulin (Homo sapiens). As to the kind of experiment: Inhibition of tubulin polymerization in human SH-SY5Y cells assessed as disappearance of tubulin network structure at 3 times EC50 measured after 16 hrs by immunofluorescence assay. The assay is classed as cell-based.
In assay [11] the test system is SH-SY5Y. As to the kind of experiment: Upregulation of tubulin acetylation in human SH-SY5Y cells at 200 nM by immunofluorescence assay. It counts as functional, cell-based.
For assay [12], the system named is SH-SY5Y. As to the kind of experiment: Upregulation of tubulin acetylation in human SH-SY5Y cells at 70 to 350 nM measured after 16 hrs by Western blot analysis. It counts as functional, cell-based. The conditions noted are these: dose 70-350 nM.
Assay [13] concerns SH-SY5Y. In words: Upregulation of tubulin acetylation in human SH-SY5Y cells at 1 uM measured after 16 hrs by Western blot analysis. The assay is classed as functional, cell-based.
The target in assay [14] is T1, Tubulin (Homo sapiens). As to the kind of experiment: Inhibition of tubulin polymerization (unknown origin) at 1 to 30 uM measured every 60 secs for 1 hr by fluorescence based analysis. The assay is classed as protein-complex assay. The settings on record: dose 1-30 µM, time 60.0 sec.
The test system of assay [15] is SH-SY5Y. As to the kind of experiment: Upregulation of tubulin acetylation in human SH-SY5Y cells at 300 nM by immunofluorescence assay. It counts as functional, cell-based.
The test system of assay [16] is SH-SY5Y. As to the kind of experiment: Upregulation of tubulin acetylation in human SH-SY5Y cells at 100 to 1000 nM measured after 16 hrs by Western blot analysis. The assay is classed as functional, cell-based. The settings on record: dose 100-1000 nM.

Active and inactive are the calls of the source. No cut-off for these calls is given here.

With `CC(=O)O[C@H]1C(=O)[C@@]2(C)[C@H]([C@H](OC(=O)c3ccccc3)[C@]3(O)C[C@H](OC(=O)[C@H](O)[C@@H](NC(=O)c4ccccc4)c4ccccc4)C(C)=C1C3(C)C)[C@]1(OC(C)=O)CO[C@@H]1C[C@@H]2O`, the inhibition entry in assay [1] was “Active”.
What is called EC50 is the midpoint of the concentration-response curve. Regarding `C/C(Nc1ccccc1)=C1/C(=O)N[C@@H](Cc2ccccc2)C1=O`, the result in [2], in assay [7], in assay [11] and in assay [12] was Active. In [3], this compound showed an EC50 of 68 nM. The result in [4], in assay [5] and in [13] was inactive. Besides, the Activity in assay [6] is 34.7%. Also, the inhibition result in [8] and in [10] was “inactive” throughout. Further, the inhibition entry in assay [9] is “Dose-Dependent Effect”.
In turn, `C/C(Nc1cccc(Oc2ccccc2)c1)=C1/C(=O)NN(Cc2ccccc2)C1=O` had a half-maximal effective concentration (EC50) in assay [3] of 895 nM. The outcome in [7] and in [13] was Active.
`CN(/C=C1\C(=O)N[C@@H](Cc2ccccc2)C1=O)c1ccccc1` showed an Activity in assay [6] of 112.4%.
Take `COc1ccc(/C=C\c2cc(OC)c(OC)c(OC)c2)cc1O`: the outcome in assay [4] and in [5] was inactive.
With `C/C(Cc1ccccc1)=C1/C(=O)N[C@@H](Cc2ccccc2)C1=O`, in [6], the Activity was determined as 100.7%.
The same measure, in the same setting: then `C/C(Nc1ccccc1)=C1/C(=O)NN(Cc2ccccc2)C1=O`, with 36.2%.
As to `C#CCCOc1cccc(N/C(C)=C2\C(=O)NN(Cc3ccccc3)C2=O)c1`, in assay [3], a half-maximal response (EC50) required 790 nM. Also, in [13], the outcome was Active.
Regarding `C#CCOc1cccc(N/C(C)=C2\C(=O)NN(Cc3ccccc3)C2=O)c1`, it took 102 nM to reach a half-maximal effect in assay [3] (EC50). In addition, the result in [7], in assay [15] and in assay [16] was Active. Moreover, the inhibition entry in [8] and in assay [10] was “inactive” in each case. For the same compound, the inhibition result in assay [14] was “Active”.
`O=C1N[C@@H](Cc2ccccc2)C(=O)/C1=C/Nc1ccccc1` yielded an Activity in [6] of 70.3%.
